Counter-ions that a name gives are not always drawn. Blank lines part the entries; values can stand above or below the molecule they belong to.
Experiments:
DA Transporter (hDAT) = DA Transporter (hDAT) (Homo sapiens, UniProt Q01959); experiment: Inhibition of [3H]-DA reuptake in HEK 293 cells stably expressing hDAT; conditions: for DA Reuptake Inhibition: 10 μmol/L final concentration (b487 prints 0.1 mmol/L), HEK 293 hDAT cells, [3H]-DA
5-HT Transporter (hSERT) = 5-HT Transporter (hSERT) (Homo sapiens, UniProt P31645); experiment: Inhibition of [3H]-5-HT reuptake in HEK 293 cells stably expressing hSERT; conditions: for 5-HT Reuptake Inhibition: 10 μmol/L final concentration (b487 prints 0.1 mmol/L), HEK 293 hSERT cells, [3H]-5-HT;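 as to all read-outs here: compound preincubated 10 min at 30 °C, then 10 min uptake, filter-bound radioactivity counted by scintillation, inhibition relative to total (blank) minus non-specific (positive control) uptake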
Chain of 5-HT Transporter (hSERT) (P31645 whole entry): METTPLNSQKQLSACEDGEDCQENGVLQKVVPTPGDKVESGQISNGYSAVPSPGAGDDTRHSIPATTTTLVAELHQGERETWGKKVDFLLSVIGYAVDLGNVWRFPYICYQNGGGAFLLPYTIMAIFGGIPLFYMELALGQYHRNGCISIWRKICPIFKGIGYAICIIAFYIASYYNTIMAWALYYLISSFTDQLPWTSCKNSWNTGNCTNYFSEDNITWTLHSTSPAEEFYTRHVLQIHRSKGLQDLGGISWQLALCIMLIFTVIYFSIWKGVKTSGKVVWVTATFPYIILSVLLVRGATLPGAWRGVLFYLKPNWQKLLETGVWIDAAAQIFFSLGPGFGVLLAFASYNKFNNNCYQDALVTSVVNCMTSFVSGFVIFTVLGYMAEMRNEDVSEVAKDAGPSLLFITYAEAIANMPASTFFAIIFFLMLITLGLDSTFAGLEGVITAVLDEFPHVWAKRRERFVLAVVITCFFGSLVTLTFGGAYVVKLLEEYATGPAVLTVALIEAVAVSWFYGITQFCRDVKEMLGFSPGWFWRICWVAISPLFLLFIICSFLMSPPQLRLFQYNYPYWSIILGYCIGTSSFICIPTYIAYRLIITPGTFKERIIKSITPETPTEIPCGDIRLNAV

NA Transporter (hNAT) = NA Transporter (hNAT) (Homo sapiens, UniProt P23975); experiment: Inhibition of [3H]-NA reuptake in HEK 293 cells stably expressing hNAT; conditions: 10 μmol/L final concentration (b487 prints 0.1 mmol/L); HEK 293 hNAT cells, [3H]-NA
Chain of NA Transporter (hNAT) (P23975 whole entry): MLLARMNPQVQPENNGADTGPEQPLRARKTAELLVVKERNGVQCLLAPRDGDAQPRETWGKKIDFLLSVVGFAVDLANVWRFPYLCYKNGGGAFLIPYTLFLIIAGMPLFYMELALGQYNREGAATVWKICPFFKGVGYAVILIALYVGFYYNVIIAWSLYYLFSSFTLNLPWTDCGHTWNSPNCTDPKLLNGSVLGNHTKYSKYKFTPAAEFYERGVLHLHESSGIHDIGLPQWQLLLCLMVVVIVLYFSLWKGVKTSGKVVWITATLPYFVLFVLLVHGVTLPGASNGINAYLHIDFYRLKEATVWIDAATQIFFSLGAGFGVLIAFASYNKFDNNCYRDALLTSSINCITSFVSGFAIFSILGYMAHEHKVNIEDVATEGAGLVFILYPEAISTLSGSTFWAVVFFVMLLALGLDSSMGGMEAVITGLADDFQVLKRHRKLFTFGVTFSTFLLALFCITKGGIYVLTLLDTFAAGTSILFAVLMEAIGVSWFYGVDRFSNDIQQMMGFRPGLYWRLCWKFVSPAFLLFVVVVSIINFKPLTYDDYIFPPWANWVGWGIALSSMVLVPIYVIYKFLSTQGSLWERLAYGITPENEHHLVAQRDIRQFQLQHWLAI

Chain of DA Transporter (hDAT) (Q01959 whole entry): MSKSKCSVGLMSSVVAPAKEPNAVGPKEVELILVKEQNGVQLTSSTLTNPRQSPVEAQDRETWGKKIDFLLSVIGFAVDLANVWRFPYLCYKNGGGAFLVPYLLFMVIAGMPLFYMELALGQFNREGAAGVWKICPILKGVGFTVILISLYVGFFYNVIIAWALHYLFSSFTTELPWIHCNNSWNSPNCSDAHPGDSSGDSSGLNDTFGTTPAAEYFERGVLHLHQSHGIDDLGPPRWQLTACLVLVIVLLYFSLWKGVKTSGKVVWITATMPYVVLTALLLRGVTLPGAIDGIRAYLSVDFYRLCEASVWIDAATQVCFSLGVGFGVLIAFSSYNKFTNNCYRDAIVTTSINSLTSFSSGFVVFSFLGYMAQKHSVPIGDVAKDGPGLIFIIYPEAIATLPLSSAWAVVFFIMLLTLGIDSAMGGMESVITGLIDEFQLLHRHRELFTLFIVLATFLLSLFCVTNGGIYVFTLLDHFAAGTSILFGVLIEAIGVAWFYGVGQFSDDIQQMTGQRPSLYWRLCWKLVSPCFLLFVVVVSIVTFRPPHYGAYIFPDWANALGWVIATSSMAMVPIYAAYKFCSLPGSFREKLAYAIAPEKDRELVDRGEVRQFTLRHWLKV

- melting point: 257.3 to 258.9 °C
Structure (SMILES): CN(C)CCC(c1ccc(Cl)c(Cl)c1)N1CCNCC1 (stereo not shown) (as salt: hydrochloride) [VI-3, N,N-dimethyl-3-(3,4-dichlorophenyl)-3-(piperazin-1-yl)-propylamine]

- melting point: 195.2 to 197.8 °C
Structure (SMILES): CCCN(C)C1(c2ccc(OC)c(OC)c2)CCCNC1 (stereo not shown) (as salt: hydrochloride)

Structure (SMILES): COc1ccc2cc(C(CCN(C)C)N3CCOCC3)ccc2c1Cl (stereo not shown) [VI-34, N,N-dimethyl-3-(5-chloro-6-methoxynaphthalen-2-yl)-3-morpholinyl-propylamine]
- DA Reuptake Inhibition (DA Transporter (hDAT)): 2.48%
- 5-HT Reuptake Inhibition (5-HT Transporter (hSERT)): 47.3%
- NA Reuptake Inhibition (NA Transporter (hNAT)): 49.5%

Structure (SMILES): COc1ccc(C(CCN(C)Cc2ccccc2)N2CCOCC2)cc1OC (stereo not shown) [VI-56, N-methyl-N-benzyl-3-(3,4-dimethoxyphenyl)-3-morpholinyl-propylamine]
- DA Reuptake Inhibition (DA Transporter (hDAT)): 59.2%
- 5-HT Reuptake Inhibition (5-HT Transporter (hSERT)): 78.0%
- NA Reuptake Inhibition (NA Transporter (hNAT)): 68.7%

Structure (SMILES): CN(C)CCC(c1ccc(F)cc1F)N1CCOCC1 (stereo not shown) [VI-48, N,N-dimethyl-3-(2,4-difluorophenyl)-3-morpholinyl-propylamine]
- DA Reuptake Inhibition (DA Transporter (hDAT)): 45.6%
- 5-HT Reuptake Inhibition (5-HT Transporter (hSERT)): 65.0%
- NA Reuptake Inhibition (NA Transporter (hNAT)): 58.0%

- melting point: 298.5 to 300 °C
Structure (SMILES): CN(CCCC1(c2cc3ccccc3s2)CCCNC1)Cc1ccccc1 (stereo not shown) (as salt: hydrochloride) [VI-23, N-methyl-N-benzyl-3-(benzothiophen-2-yl)-3-piperidyl-propylamine]

Structure (SMILES): CN(C)CCC(c1csc2ccccc12)N1CCCC1 (stereo not shown) (as salt: hydrochloride) [VI-13, N,N-dimethyl-3-(benzothiophen-3-yl)-3-(pyrrolidin-1-yl)-propylamine]
- melting point: 259.7 to 262.2 °C

- melting point: 189.3 to 192.4 °C
Structure (SMILES): CCCN(C)C1(c2ccc3c(c2)OCO3)CCCNC1 (stereo not shown) (as salt: hydrochloride)

- melting point: 193.2 to 195 °C
Structure (SMILES): CCCN(C)C1(c2csc3ccccc23)CCCNC1 (stereo not shown) (as salt: hydrochloride)

Structure (SMILES): CN(C)CCC(c1cc2ccccc2s1)N1CCOCC1 (stereo not shown) [VI-25, N,N-dimethyl-3-(benzothiophen-2-yl)-3-morpholinyl-propylamine]
- DA Reuptake Inhibition (DA Transporter (hDAT)): 39.2%
- 5-HT Reuptake Inhibition (5-HT Transporter (hSERT)): 91.5%
- NA Reuptake Inhibition (NA Transporter (hNAT)): 96.8%

- melting point: 287.5 to 289.2 °C
Structure (SMILES): CN(CCC(c1cc2ccccc2s1)N1CCCC1)Cc1ccccc1 (stereo not shown) (as salt: hydrochloride) [VI-20, N-methyl-N-benzyl-3-(benzothiophen-2-yl)-3-(pyrrolidin-1-yl)-propylamine]

- melting point: 256.6 to 258.9 °C
Structure (SMILES): COc1ccc(C2(CCCN(C)Cc3ccccc3)CCCNC2)cc1OC (stereo not shown) (as salt: hydrochloride) [VI-59, N-methyl-N-benzyl-3-(3,4-dimethoxyphenyl)-3-piperidyl-propylamine]

- melting point: 169.1 to 171.8 °C
Structure (SMILES): CN(C)CCCC1(c2ccc(Cl)c(Cl)c2)CCCNC1 (stereo not shown) (as salt: hydrochloride) [VI-7, N,N-dimethyl-3-(3,4-dichlorophenyl)-3-piperidyl-propylamine]

- melting point: 185.3 to 187 °C
Structure (SMILES): CCCN(C)C1(c2cc3ccccc3s2)CCCNC1 (stereo not shown) (as salt: hydrochloride) [VI-24, N-methyl-3-(benzothiophen-2-yl)-3-piperidyl-propylamine]

- melting point: 312 to 313.5 °C
Structure (SMILES): CN(CCCC1(c2csc3ccccc23)CCCNC1)Cc1ccccc1 (stereo not shown) (as salt: hydrochloride) [VI-17, N-methyl-N-benzyl-3-(benzothiophen-3-yl)-3-piperidyl-propylamine]

- melting point: 285.6 to 288.9 °C
Structure (SMILES): CN(CCCC1(c2ccc3c(c2)OCO3)CCCNC1)Cc1ccccc1 (stereo not shown) (as salt: hydrochloride) [VI-53, N-methyl-N-benzyl-3-(1,2-methylenedioxybenzen-4-yl)-3-piperidyl-propylamine]

Structure (SMILES): CN(C)CCCC(c1ccc(Cl)c(Cl)c1)N1CCOCC1 (stereo not shown) [VI-44, N,N-dimethyl-4-(3,4-dichlorophenyl)-4-morpholinyl-butylamine]
- DA Reuptake Inhibition (DA Transporter (hDAT)): 67.0%
- 5-HT Reuptake Inhibition (5-HT Transporter (hSERT)): 45.8%
- NA Reuptake Inhibition (NA Transporter (hNAT)): 54.6%

- melting point: 297 to 299.5 °C
Structure (SMILES): CN(CCC(c1csc2ccccc12)N1CCCC1)Cc1ccccc1 (stereo not shown) (as salt: hydrochloride) [VI-14, N-methyl-N-benzyl-3-(benzothiophen-3-yl)-3-(pyrrolidin-1-yl)-propylamine]

Structure (SMILES): Clc1ccc([C@]23CNC[C@H]2C3)cc1Cl [DOV-21947, reference compound]
- inhibition at 10 µM (DA Transporter (hDAT); HEK293, read-out: DA Reuptake Inhibition): 100%
- inhibition at 10 µM (5-HT Transporter (hSERT); HEK293, read-out: 5-HT Reuptake Inhibition): 100%

- melting point: 189.3 to 192 °C
Structure (SMILES): CNCCC(c1csc2ccccc12)N1CCCC1 (stereo not shown) (as salt: hydrochloride) [VI-15, N-methyl-3-(benzothiophen-3-yl)-3-(pyrrolidin-1-yl)-propylamine]

- melting point: 245.6 to 248.2 °C
Structure (SMILES): CN(C)CCCC(c1ccc(Cl)c(Cl)c1)N1CCNCC1 (stereo not shown) (as salt: hydrochloride) [VI-45, N,N-dimethyl-4-(3,4-dichlorophenyl)-4-(piperazin-1-yl)-butylamine]

- melting point: 255 to 257.2 °C
Structure (SMILES): CN(C)CCC(c1cc2ccccc2s1)N1CCCC1 (stereo not shown) (as salt: hydrochloride) [VI-19, N,N-dimethyl-3-(benzothiophen-2-yl)-3-(pyrrolidin-1-yl)-propylamine]

- melting point: 175.2 to 178.4 °C
Structure (SMILES): COc1ccc(C(CCN(C)C)N2CCCC2)cc1 (stereo not shown) (as salt: hydrochloride) [VI-37, N,N-dimethyl-3-(4-methoxyphenyl)-3-(pyrrolidin-1-yl)-propylamine]

- melting point: 249.6 to 252.2 °C
Structure (SMILES): CN(C)CCCC(c1csc2ccccc12)N1CCNCC1 (stereo not shown) (as salt: hydrochloride) [VI-47, N,N-dimethyl-4-(benzothiophen-3-yl)-4-(piperazin-1-yl)-butylamine]

Structure (SMILES): CN(C)CCC(c1cccs1)N1CCOCC1 (stereo not shown) [VI-61, N,N-dimethyl-3-(thien-2-yl)-3-morpholinyl-propylamine]
- DA Reuptake Inhibition (DA Transporter (hDAT)): 65.6%
- 5-HT Reuptake Inhibition (5-HT Transporter (hSERT)): 78.9%
- NA Reuptake Inhibition (NA Transporter (hNAT)): 75.0%

Structure (SMILES): COc1ccc(C(CCN(C)C)N2CCOCC2)cc1 (stereo not shown) [VI-38, N,N-dimethyl-3-(4-methoxyphenyl)-3-morpholinyl-propylamine]
- DA Reuptake Inhibition (DA Transporter (hDAT)): 23.0%
- 5-HT Reuptake Inhibition (5-HT Transporter (hSERT)): 25.9%
- NA Reuptake Inhibition (NA Transporter (hNAT)): 29.3%

- melting point: 175 to 176.8 °C
Structure (SMILES): CNCCC(c1cc2ccccc2s1)N1CCCC1 (stereo not shown) (as salt: hydrochloride) [VI-21, N-methyl-3-(benzothiophen-2-yl)-3-(pyrrolidin-1-yl)-propylamine]

Structure (SMILES): COc1ccc2cc(C(CCN(C)C)N3CCCC3)ccc2c1Cl (stereo not shown) (as salt: hydrochloride) [VI-36, N,N-dimethyl-3-(5-chloro-6-methoxynaphthalen-2-yl)-3-(pyrrolidin-1-yl)-propylamine]
- melting point: 215.2 to 216.9 °C

From patent US8962621B2 (Shanghai Institute of Pharmaceutical Industry, priority 2010, dated 2015)
